{"source": "patent US20250134874A1", "about": "“PHARMACEUTICAL FORMULATIONS COMPRISING 3-({[(4R)-7-{METHYL[4-(PROPAN-2-YL)PHENYL]AMINO}-3,4-DIHYDRO-2H-1-BENZOPYRAN-4-YL]METHYL}AMINO)PYRIDINE-4-CARBOXYLIC ACID” (TACHYON THERAPEUTICS, INC., priority 2021, published 2025)", "test_system": "301 cancer cell lines from different tumor types (OncoPanel; HD Biosciences)", "test": "2D cell viability inhibition assay (CellTiter-Glo) in cancer cell line panel", "assay_type": "cell-based", "design": "key to AUC: AUC as fraction of the no-inhibition area (dose range × 0–100 % of control)", "conditions": "for Emax: in %", "protocol": "In a larger screening study, compound 1 was evaluated across a broad cancer cell line panel (OncoPanel; HD Biosciences) composed of 301 cancer cell lines from different tumor types.\n2D cell viability inhibition assays were performed in multiwell plates seeded with cells from the panel. After seeding, the plates were cultured overnight in a humidified incubator at 37° C. to promote adherence. Assays were initiated in individual wells by adding either DMSO as a vehicle control, growth media as a blank, or serially diluted compound 1 (10 μM to 0.0005 μM with 1:3 serial dilution). Cultures were incubated for 168 hours after which the number of viable cells in each test well was assessed using the CellTiter-Glo® Luminescent Cell Viability Assay. Luminescence readouts were performed using an EnVision® Multilabel Reader and the compound 1 readouts were normalized to the DMSO control readouts, expressed as a percent of the control. Outliers were flagged out by visual inspection. Percent of control was plotted against the corresponding compound 1 concentration and the absolute IC50 value was determined using four-parameter logistic non-linear regression as the concentration where inhibition was 50% of the control. For maximum inhibition <50%, the absolute IC50 was reported as >10. In addition to EC50 and IC50, AUC was determined and was normalized to the area corresponding to theoretical no-inhibition (the rectangular area defined by the compound dose range and 0 to 100 in y). Emax was recorded as the minimum in y with the compound dose range. For those cell lines where Emax>40, EC50 was manually set to 10 μM. A hierarchical clustering algorithm based on Euclidean distance between the standardized input values and “Ward.D” method as implemented in R hclust function was used to visualize the compound 1 cellular potency data. The sensitive/moderate/resistant calls for each cell line was determined by visually inspecting the resulting clustering dendrogram. All the analyses were done in R Core Team.", "data": [{"smiles": "CC(C)c1ccc(N(C)c2ccc3c(c2)OCC[C@H]3CNc2cnccc2C(=O)O)cc1", "note": "[Compound 1, 3-({[(4R)-7-{methyl[4-(propan-2-yl)phenyl]amino}-3,4-dihydro-2H-1-benzopyran-4-yl]methyl}amino)pyridine-4-carboxylic acid]", "values": [{"measurement": "AUC", "setting": "143B cell line", "value": 0.3582}, {"measurement": "Emax", "setting": "143B cell line", "value": 2.196}, {"measurement": "AUC", "setting": "647V cell line", "value": 0.3912}, {"measurement": "Emax", "setting": "647V cell line", "value": 10.18}, {"measurement": "AUC", "setting": "5637 cell line", "value": 0.4857}, {"measurement": "EC50", "setting": "5637 cell line", "value": 0.00224, "unit": "µM"}, {"measurement": "IC50", "setting": "5637 cell line", "value": 0.00611, "unit": "µM"}, {"measurement": "Emax", "setting": "5637 cell line", "value": 33.01}, {"measurement": "AUC", "setting": "7860 cell line", "value": 0.5049}, {"measurement": "IC50", "setting": "168 h, HS688AT, skin, NS", "value": "> 10", "unit": "µM"}, {"measurement": "IC50", "setting": "168 h, HS739T, breast, NS", "value": "> 10", "unit": "µM"}, {"measurement": "IC50", "setting": "168 h, HS839T, skin, NS", "value": "> 10", "unit": "µM"}, {"measurement": "IC50", "setting": "168 h, HS852T, skin, NS", "value": "> 10", "unit": "µM"}, {"measurement": "IC50", "setting": "168 h, HUH28, biliary tract, NS", "value": "> 10", "unit": "µM"}, {"measurement": "IC50", "setting": "168 h, KG1, haematopoietic and lymphoid tissue, acute myeloid leukaemia", "value": "> 10", "unit": "µM"}, {"measurement": "IC50", "setting": "168 h, KURAMOCHI, ovary, undifferentiated carcinoma", "value": "> 10", "unit": "µM"}, {"measurement": "IC50", "setting": "168 h, NMCG1, central nervous system, NS", "value": "> 10", "unit": "µM"}, {"measurement": "IC50", "setting": "168 h, SKMEL31, skin, NS", "value": "> 10", "unit": "µM"}, {"measurement": "IC50", "setting": "168 h, T24, urinary tract, transitional cell carcinoma", "value": "> 10", "unit": "µM"}, {"measurement": "IC50", "setting": "168 h, TE1, oesophagus, squamous cell carcinoma", "value": "> 10", "unit": "µM"}, {"measurement": "IC50", "setting": "168 h, TE8, oesophagus, squamous cell carcinoma", "value": "> 10", "unit": "µM"}, {"measurement": "AUC", "setting": "A101D cell line", "value": 0.4689}, {"measurement": "Emax", "setting": "A101D cell line", "value": 20.46}, {"measurement": "AUC", "setting": "A204, soft tissue, NS, 168 hours", "value": 0.7136}, {"measurement": "AUC", "setting": "A375 cell line", "value": 0.4405}, {"measurement": "Emax", "setting": "A375 cell line", "value": 19.51}, {"measurement": "AUC", "setting": "A549 cell line", "value": 0.573}, {"measurement": "AUC", "setting": "A2058 cell line", "value": 0.5694}, {"measurement": "AUC", "setting": "A2780 cell line", "value": 0.1811}, {"measurement": "AUC", "setting": "ACHN cell line", "value": 0.453}, {"measurement": "AUC", "setting": "AGS cell line", "value": 0.3536}, {"measurement": "Emax", "setting": "AGS cell line", "value": 14.1129}, {"measurement": "AUC", "setting": "ASPC1 cell line", "value": 0.5812}, {"measurement": "AUC", "setting": "AZ521 cell line", "value": 0.2875}, {"measurement": "AUC", "setting": "BFTC905 cell line", "value": 0.3989}, {"measurement": "Emax", "setting": "BFTC905 cell line", "value": 13.74}, {"measurement": "AUC", "setting": "BICR18 cell line", "value": 0.619}, {"measurement": "EC50", "setting": "BICR18 cell line", "value": 0.187, "unit": "µM"}, {"measurement": "IC50", "setting": "BICR18 cell line", "value": 0.194, "unit": "µM"}, {"measurement": "AUC", "setting": "BICR22 cell line", "value": 0.6829}, {"measurement": "IC50", "setting": "BICR22 cell line", "value": "> 10", "unit": "µM"}, {"measurement": "AUC", "setting": "BT20, breast, ductal carcinoma, 168 hours", "value": 0.9117}, {"measurement": "AUC", "setting": "BT474, breast, ductal carcinoma, 168 hours", "value": 0.7206}, {"measurement": "AUC", "setting": "BT549 cell line", "value": 0.431}, {"measurement": "Emax", "setting": "BT549 cell line", "value": 20.55}, {"measurement": "AUC", "setting": "BXPC3 cell line", "value": 0.5738}, {"measurement": "AUC", "setting": "C2BBE1, large intestine, adenocarcinoma, 168 hours", "value": 0.8303}, {"measurement": "AUC", "setting": "C32 cell line", "value": 0.2532}, {"measurement": "AUC", "setting": "CAKI1 cell line", "value": 0.5319}, {"measurement": "Emax", "setting": "CAKI1 cell line", "value": 34.03}, {"measurement": "AUC", "setting": "CAL27, upper aerodigestive tract, squamous cell carcinoma, 168 hours", "value": 0.8335}, {"measurement": "AUC", "setting": "CALU1, lung, squamous cell carcinoma, 168 hours", "value": 1.217}, {"measurement": "AUC", "setting": "CALU3, lung, adenocarcinoma, 168 hours", "value": 0.7277}, {"measurement": "AUC", "setting": "CALU6 cell line", "value": 0.4595}, {"measurement": "Emax", "setting": "CALU6 cell line", "value": 18.32}, {"measurement": "AUC", "setting": "CAOV3 cell line", "value": 0.3908}, {"measurement": "Emax", "setting": "CAOV3 cell line", "value": 19.3273}, {"measurement": "AUC", "setting": "CAPAN1 cell line", "value": 0.6391}, {"measurement": "AUC", "setting": "CAPAN2, pancreas, ductal carcinoma, 168 hours", "value": 0.8808}, {"measurement": "AUC", "setting": "CCFSTTG1, central nervous system, astrocytoma, 168 hours", "value": 0.879}, {"measurement": "AUC", "setting": "CFPAC1 cell line", "value": 0.5227}, {"measurement": "Emax", "setting": "CFPAC1 cell line", "value": 29.22}, {"measurement": "AUC", "setting": "CHL1 cell line", "value": 0.3493}, {"measurement": "AUC", "setting": "COLO205 cell line", "value": 0.4833}, {"measurement": "Emax", "setting": "COLO205 cell line", "value": 27.13}, {"measurement": "AUC", "setting": "COLO320HSR cell line", "value": 0.2403}, {"measurement": "AUC", "setting": "COLO679 cell line", "value": 0.502}, {"measurement": "AUC", "setting": "COLO680N cell line", "value": 0.5311}, {"measurement": "Emax", "setting": "COLO680N cell line", "value": 33.76}, {"measurement": "AUC", "setting": "COLO741 cell line", "value": 0.4186}, {"measurement": "Emax", "setting": "COLO741 cell line", "value": 18.78}, {"measurement": "AUC", "setting": "COLO829 cell line", "value": 0.6557}, {"measurement": "AUC", "setting": "CORL279 cell line", "value": 0.3155}, {"measurement": "AUC", "setting": "DAOY, central nervous system, NS, 168 hours", "value": 0.9684}, {"measurement": "AUC", "setting": "DAUDI cell line", "value": 0.5383}, {"measurement": "Emax", "setting": "DAUDI cell line", "value": 25.4109}, {"measurement": "AUC", "setting": "DETROIT562 cell line", "value": 0.5873}, {"measurement": "Emax", "setting": "DETROIT562 cell line", "value": 36.51}, {"measurement": "AUC", "setting": "DLD1 cell line", "value": 0.226}, {"measurement": "AUC", "setting": "DMS53, lung, small cell carcinoma, 168 hours", "value": 0.7426}, {"measurement": "AUC", "setting": "DMS79 cell line", "value": 0.3845}, {"measurement": "AUC", "setting": "DMS153 cell line", "value": 0.6737}, {"measurement": "AUC", "setting": "DMS273 cell line", "value": 0.4815}, {"measurement": "AUC", "setting": "DU145 cell line", "value": 0.4324}, {"measurement": "Emax", "setting": "DU145 cell line", "value": 18.16}, {"measurement": "AUC", "setting": "DV90 cell line", "value": 0.3698}, {"measurement": "Emax", "setting": "DV90 cell line", "value": 11.78}, {"measurement": "AUC", "setting": "ECGI10 cell line", "value": 0.5683}, {"measurement": "EC50", "setting": "ECGI10 cell line", "value": "≥ 10", "unit": "µM"}, {"measurement": "IC50", "setting": "ECGI10 cell line", "value": 0.0224, "unit": "µM"}, {"measurement": "AUC", "setting": "FTC133 cell line", "value": 0.4146}, {"measurement": "Emax", "setting": "FTC133 cell line", "value": 22.3385}, {"measurement": "AUC", "setting": "G361, skin, NS, 168 hours", "value": 1.044}, {"measurement": "AUC", "setting": "G401 cell line", "value": 0.2508}, {"measurement": "AUC", "setting": "GAK cell line", "value": 0.6649}, {"measurement": "IC50", "setting": "GAK cell line", "value": "> 10", "unit": "µM"}, {"measurement": "AUC", "setting": "GI1 cell line", "value": 0.6237}, {"measurement": "AUC", "setting": "GP2D cell line", "value": 0.506}, {"measurement": "EC50", "setting": "GP2d, GP2D cell line", "value": 0.0206, "unit": "µM"}, {"measurement": "IC50", "setting": "GP2d, GP2D cell line", "value": 0.0262, "unit": "µM"}, {"measurement": "AUC", "setting": "GRANTA519 cell line", "value": 0.4686}, {"measurement": "Emax", "setting": "GRANTA519 cell line", "value": 17.91}, {"measurement": "AUC", "setting": "HCC38, breast, ductal carcinoma, 168 hours", "value": 0.9864}, {"measurement": "AUC", "setting": "HCC70 cell line", "value": 0.4135}, {"measurement": "Emax", "setting": "HCC70 cell line", "value": 13.85}, {"measurement": "AUC", "setting": "HCC78 cell line", "value": 0.5315}, {"measurement": "AUC", "setting": "HCC95 cell line", "value": 0.4072}, {"measurement": "AUC", "setting": "HCC827, lung, adenocarcinoma, 168 hours", "value": 0.8814}, {"measurement": "AUC", "setting": "HCC1143 cell line", "value": 0.6906}, {"measurement": "AUC", "setting": "HCC1187 cell line", "value": 0.465}, {"measurement": "Emax", "setting": "HCC1187 cell line", "value": 34}, {"measurement": "AUC", "setting": "HCC1419, breast, ductal carcinoma, 168 hours", "value": 0.7201}, {"measurement": "AUC", "setting": "HCC1428, breast, NS, 168 hours", "value": 0.7818}]}]}
